We go through 31 compounds from publication PMC3895407 (Journal of medicinal chemistry, 2013).

The subject of series [1] is Fort Morgan virus (FMV). Conditions: 25 µM.
The conditions of series [2]: Table 3; BBB lipid mixture, pH 7.4.
The next series relates to WEEV replicon. Type of series: cell-based, western equine encephalitis virus.
Series [3] is described as follows: in vitro. The settings on record: PAMPA, pH 7.4.
Series [4] relates to Fort Morgan virus (FMV). In kind it is cell-based.
Series [5] can be described thus: in vitro.
Series [6] deals with western equine encephalitis virus (WEEV). The settings on record: cited from earlier work.
Series [7] has the same test system. The settings on record: 25 µM.
In series [8] the test system is cell viability (cellular reduction of MTT).
The conditions of series [9]: relative to lead compound 3.

Marks after values point to notes of the source that are not given here. A value given as a limit tells only on which side of the number the result lay.

In general, Papp refers to a coefficient for how fast a substance crosses the barrier. As usually defined, the IC50 is the concentration at which inhibition is half-maximal.

On to `O=C(NCCc1ccncc1)C1CCN(C(=O)c2cc3ccccc3n2Cc2ccc(Cl)cc2)CC1` [27g, 1-(1-(4-Chlorobenzyl)-1H-indole-2-carbonyl)-N-(2-(pyridin-4-yl)ethyl)piperidine-4-carboxamide], for which the “FMV Viability (% uninfected control)” value in the series on Fort Morgan virus (FMV) [1] is 71.9 ± 1.9 % uninfected control. Further, in [2], the “BBB-PAMPA (log Peff)” value was -4.18 ± 0.06 cm/s. For the same compound, the “Fold increase in potency in WEEV replicon assay” value in the series on WEEV replicon came out at 10 fold. In “in vitro [3]”, this compound showed an apparent permeability coefficient (Papp) of 66.1 ×10⁻⁶ cm/s. In addition, in the series with Fort Morgan virus (FMV) [4], the “Reduction of viral titers compared with 3” value (“Reduction of viral titers” for short) is reported as “approximately ten-fold more than 3”.
`Cn1c(C(=O)N2CCC(C(=O)NCCc3ccncc3)CC2)cc2ccccc21` [29e, 1-(1-Methyl-1H-indole-2-carbonyl)-N-(2-(pyridin-4-yl)ethyl)piperidine-4-carboxamide] displayed a CC50 in “in vitro [5]” above 50 µM.
For the compound `Cn1ccc(CNC(=O)C2CCN(C(=O)c3cc4ccccc4n3Cc3ccc(Cl)cc3)CC2)n1` [27e, 1-(1-(4-Chlorobenzyl)-1H-indole-2-carbonyl)-N-((1-methyl-1H-pyrazol-3-yl)methyl)piperidine-4-carboxamide], in the series “in vitro [5]”, the CC50 was above 100 µM.
`O=C(NCCc1ccncc1)C1CCN(C(=O)NCCc2ccc(Cl)cc2)CC1` [29d, N1-(4-Chlorophenethyl)-N4-(2-(pyridin-4-yl)ethyl)piperidine-1,4-dicarboxamide] showed a CC50 in “in vitro [5]” above 100 µM. In “in vitro [3]”, this compound showed a Papp of 14.1 ×10⁻⁶ cm/s.
As to `CN(Cc1ccccc1)C(=O)C1CCN(C(=O)c2cc3ccccc3n2Cc2ccc([N+](=O)[O-])cc2)CC1` [28b, N-Benzyl-N-methyl-1-(1-(4-nitrobenzyl)-1H-indole-2-carbonyl)piperidine-4-carboxamide], the CC50 in the series “in vitro [5]” was above 100 µM.
`CN(C)C(=O)C1CCN(C(=O)c2cc3ccccc3n2Cc2ccc(Cl)cc2)CC1` [27v, 1-(1-(4-Chlorobenzyl)-1H-indole-2-carbonyl)-N,N-dimethylpiperidine-4-carboxamide]: in the series “in vitro [5]”, the CC50 was above 100 µM. Besides, the Papp in “in vitro [3]” was 64.6 ×10⁻⁶ cm/s.
`CN1CCC(CNC(=O)C2CCN(C(=O)c3cc4ccccc4n3Cc3ccc(Cl)cc3)CC2)CC1` [27d, 1-(1-(4-Chlorobenzyl)-1H-indole-2-carbonyl)-N-((1-methylpiperidin-4-yl)methyl)piperidine-4-carboxamide] came in with a CC50 in “in vitro [5]” above 50 µM.
As for `CN(CCc1ccncc1)C(=O)C1CCN(C(=O)c2cc3ccccc3n2Cc2ccc(Cl)cc2)CC1` [27m, 1-(1-(4-Chlorobenzyl)-1H-indole-2-carbonyl)-N-methyl-N-(2-(pyridin-4-yl)ethyl)piperidine-4-carboxamide], in the series on WEEV replicon, the “Fold diminished potency in WEEV replicon assay” value turned out to be 3 fold. In “in vitro [3]”, the apparent permeability coefficient (Papp) was 61.7 ×10⁻⁶ cm/s.
The compound `CC(=O)n1c(C(=O)N2CCC(C(=O)N(C)Cc3ccccc3)CC2)cc2ccccc21` [28e, 1-(1-Acetyl-1H-indole-2-carbonyl)-N-benzyl-N-methylpiperidine-4-carboxamide] displayed a CC50 in “in vitro [5]” above 50 µM. In the series “in vitro [3]”, the Papp is 9.77 ×10⁻⁶ cm/s.
In the same order, the values of `O=C(NCc1ccncc1)C1CCN(C(=O)c2cc3ccccc3n2Cc2ccc(Cl)cc2)CC1` [compound 4] are above 100 µM and 69.2 ×10⁻⁶ cm/s.
With `C[C@@H](NC(=O)C1CCN(C(=O)c2cc3ccccc3n2Cc2ccc(Cl)cc2)CC1)c1ccncc1` [27b, (R)-1-(1-(4-Chlorobenzyl)-1H-indole-2-carbonyl)-N-(1-(pyridin-4-yl)ethyl)piperidine-4-carboxamide], the Papp in the series “in vitro [3]” was 95.5 ×10⁻⁶ cm/s.
The same measure, in the same setting: next, `O=C(NCCc1ccncc1)C1CCN(C(=O)c2cc(F)cn2Cc2ccc(Cl)cc2)CC1` [29k, 1-(1-(4-Chlorobenzyl)-4-fluoro-1H-pyrrole-2-carbonyl)-N-(2-(pyridin-4-yl)ethyl)piperidine-4-carboxamide]: 12.6 ×10⁻⁶ cm/s.
Turning to `Cn1cnc(CNC(=O)C2CCN(C(=O)c3cc4ccccc4n3Cc3ccc(Cl)cc3)CC2)c1` [27f, 1-(1-(4-Chlorobenzyl)-1H-indole-2-carbonyl)-N-((1-methyl-1H-imidazol-4-yl)methyl)piperidine-4-carboxamide], in the series “in vitro [5]”, the CC50 is above 50 µM.
Take `O=C(NCCn1ccnc1)C1CCN(C(=O)c2cc3ccccc3n2Cc2ccc(Cl)cc2)CC1` [27o, N-(2-(1H-Imidazol-1-yl)ethyl)-1-(1-(4-chlorobenzyl)-1H-indole-2-carbonyl)piperidine-4-carboxamide]: the apparent permeability (Papp) in the series “in vitro [3]” was 1.74 ×10⁻⁶ cm/s.
On to `C[C@@H](NC(=O)C1CCN(C(=O)c2cc3ccccc3n2Cc2ccc(Cl)cc2)CC1)c1ccccc1` [compound 3], for which the “WEEV Titer” value in series [6] was 8.8 ± 1.0* x10^6 pfu/mL. Besides, the “FMV Viability (% uninfected control)” value in the series on Fort Morgan virus (FMV) [1] is given as 47.4 ± 8.0 % uninfected control. Further, in “in vitro [5]”, the CC50 was above 100 µM. The apparent permeability (Papp) in “in vitro [3]” is 0.302 ×10⁻⁶ cm/s.
For the compound `NC(=O)c1ncn([C@@H]2O[C@H](CO)[C@@H](O)[C@H]2O)n1` [Ribavirin], the “WEEV Viability (% uninfected control)” value in series [7] is 35.3 ± 1.0 % uninfected control.
In the case of `O=C(NCCc1ccncc1)C1CCN(C(=O)c2cc3ccc(F)cc3n2Cc2ccc(Cl)cc2)CC1` [29h, 1-(1-(4-Chlorobenzyl)-6-fluoro-1H-indole-2-carbonyl)-N-(2-(pyridin-4-yl)ethyl)piperidine-4-carboxamide], the “Reduction of viral titers” value with Fort Morgan virus (FMV) [4] is “approximately ten-fold more than 3”.
Turning to `O=C(NCCc1ccncc1)C1CCN(C(=O)c2cccn2Cc2ccc(Cl)cc2)CC1` [29a, 1-(1-(4-Chlorobenzyl)-1H-pyrrole-2-carbonyl)-N-(2-(pyridin-4-yl)ethyl)piperidine-4-carboxamide], in the series with Fort Morgan virus (FMV) [1], the “FMV Viability (% uninfected control)” value was determined as 63.0 ± 5.9 % uninfected control. Besides, the CC50 in “in vitro [5]” is above 100 µM. The same compound showed an apparent permeability coefficient (Papp) in “in vitro [3]” of 9.77 ×10⁻⁶ cm/s.
Compound `O=C(NCCc1ccncc1)C1CCN(C(=O)c2cc3cc(F)ccc3n2Cc2ccc(Cl)cc2)CC1` [29i, 1-(1-(4-Chlorobenzyl)-5-fluoro-1H-indole-2-carbonyl)-N-(2-(pyridin-4-yl)ethyl)piperidine-4-carboxamide] showed a Papp in the series “in vitro [3]” of 77.6 ×10⁻⁶ cm/s.
In “in vitro [5]”, `CN(Cc1ccccc1)C(=O)C1CCN(C(=O)c2cc3ccccc3n2Cc2ccc(C#N)cc2)CC1` [28c, N-Benzyl-1-(1-(4-cyanobenzyl)-1H-indole-2-carbonyl)-N-methylpiperidine-4-carboxamide] yielded a CC50 above 100 µM. The compound further had a Papp in “in vitro [3]” of 53.7 ×10⁻⁶ cm/s.
Compound `O=C(NCCc1ccncc1)C1CCN(C(=O)c2nccn2Cc2ccc(Cl)cc2)CC1` [29b, 1-(1-(4-Chlorobenzyl)-1H-imidazole-2-carbonyl)-N-(2-(pyridin-4-yl)ethyl)piperidine-4-carboxamide] displayed a CC50 in “in vitro [5]” above 50 µM. The same compound showed an apparent permeability coefficient (Papp) in the series “in vitro [3]” of 8.71 ×10⁻⁶ cm/s.
Turning to “1-(1-(4-Chlorobenzyl)-1H-indole-2-carbonyl)-N-(2-methyl-2-(pyridin-4-yl)propyl)piperidine-4-carboxamide [27l]”, the CC50 in [8] is 43.6 µM. For the same compound, the 50% inhibitory concentration (IC50) with WEEV replicon (read-out: IC50 (inhibition of luciferase expression in WEEV replicon assay)) is 19.3 ± 21 µM.
`O=C(NCCc1ccncc1)C1CCN(C(=O)c2cc3ccncc3n2Cc2ccc(Cl)cc2)CC1` [29j, 1-(1-(4-Chlorobenzyl)-1H-pyrrolo[2,3-c]pyridine-2-carbonyl)-N-(2-(pyridin-4-yl)ethyl)piperidine-4-carboxamide]: the apparent permeability (Papp) in the series “in vitro [3]” is 3.02 ×10⁻⁶ cm/s.
Take `COc1cccc(CCNC(=O)C2CCN(C(=O)c3cc4ccccc4n3Cc3ccc(Cl)cc3)CC2)c1` [27p, 1-(1-(4-Chlorobenzyl)-1H-indole-2-carbonyl)-N-(3-methoxyphenethyl)piperidine-4-carboxamide]: the CC50 in “in vitro [5]” is above 100 µM.
Turning to `O=C(NCCc1ccncc1)C1CCN(C(=O)c2nc3ccccc3n2Cc2ccc(Cl)cc2)CC1` [29c, 1-(1-(4-Chlorobenzyl)-1H-benzo[d]imidazole-2-carbonyl)-N-(2-(pyridin-4-yl)ethyl)piperidine-4-carboxamide], the “Fold increase in half-life in mouse liver microsomes” value in series [9] was 20-35 fold. In “in vitro [3]”, this compound gave an apparent permeability coefficient (Papp) of 31.6 ×10⁻⁶ cm/s.
Consider `CC(NC(=O)C1CCN(C(=O)c2cc3ccccc3n2Cc2ccc(Cl)cc2)CC1)c1ccncc1` (stereo not drawn) [27a, 1-(1-(4-Chlorobenzyl)-1H-indole-2-carbonyl)-N-(1-(pyridin-4-yl)ethyl)piperidine-4-carboxamide], for which the “FMV Viability (% uninfected control)” value in the series with Fort Morgan virus (FMV) [1] amounted to 68.2 ± 2.4 % uninfected control. Further, in the series on WEEV replicon, the “Fold improvement of activity in WEEV replicon assay” value is given as “about 3 fold”. Moreover, the apparent permeability (Papp) in “in vitro [3]” was 102 ×10⁻⁶ cm/s. In addition, in the series on Fort Morgan virus (FMV) [4], the “Reduction of viral titers” value is “approximately ten-fold more than 3”.
Consider `O=C(NCc1cccnc1)C1CCN(C(=O)c2cc3ccccc3n2Cc2ccc(Cl)cc2)CC1` [compound 5], for which the “Fold loss in activity in WEEV replicon assay” value in the series with WEEV replicon is given as 2 fold.
For `O=C(NCCc1ccncc1)C1CCN(C(=O)c2cc3ccccc3n2Cc2ccccc2)CC1` [29f, 1-(1-Benzyl-1H-indole-2-carbonyl)-N-(2-(pyridin-4-yl)ethyl)piperidine-4-carboxamide], the “Fold increase in half-life in mouse liver microsomes” value in series [9] is recorded as 20-35 fold.
For the compound `COCCn1c(C(=O)N2CCC(C(=O)N(C)Cc3ccccc3)CC2)cc2ccccc21` [28f, N-Benzyl-1-(1-(2-methoxyethyl)-1H-indole-2-carbonyl)-N-methylpiperidine-4-carboxamide], in “in vitro [5]”, the CC50 was above 50 µM. In the series “in vitro [3]”, the Papp is 40.7 ×10⁻⁶ cm/s.
With `O=C(c1cc2ccccc2n1Cc1ccc(Cl)cc1)N1CCC(C(=O)N2CCOCC2)CC1` [27x, (1-(4-Chlorobenzyl)-1H-indol-2-yl)(4-(morpholine-4-carbonyl)piperidin-1-yl)methanone], the CC50 in “in vitro [5]” was above 100 µM.
Take `O=C(NCCCc1ccncc1)C1CCN(C(=O)c2cc3ccccc3n2Cc2ccc(Cl)cc2)CC1` [27j, 1-(1-(4-Chlorobenzyl)-1H-indole-2-carbonyl)-N-(3-(pyridin-4-yl)propyl)piperidine-4-carboxamide]: in the series on WEEV replicon, the “Fold decrease in potency in WEEV replicon assay” value is given as 5 fold. The compound also showed a Papp in the series “in vitro [3]” of 77.6 ×10⁻⁶ cm/s.
